In patent publication US20260258036A1, “INHIBITORS OF HUMAN ALDOSTERONE SYNTHASE (CYP11B2)” («TARGET MEDICALS» LIMITED LIABILITY COMPANY, priority 2022, published 2026):

target: T1, recombinant CYP11B2 (Homo sapiens, UniProt P19099); assay: Inhibition of CYP11B2 activity in a reconstructed enzyme system (HPLC with UV detector); type: biochemical; settings: compounds 1_xx; test compound final concentration ≤2 μM; corticosterone substrate; 30 minutes at 37° C.; read-out: Level of CYP11B2 activity inhibition
T1 sequence (P19099 25-503): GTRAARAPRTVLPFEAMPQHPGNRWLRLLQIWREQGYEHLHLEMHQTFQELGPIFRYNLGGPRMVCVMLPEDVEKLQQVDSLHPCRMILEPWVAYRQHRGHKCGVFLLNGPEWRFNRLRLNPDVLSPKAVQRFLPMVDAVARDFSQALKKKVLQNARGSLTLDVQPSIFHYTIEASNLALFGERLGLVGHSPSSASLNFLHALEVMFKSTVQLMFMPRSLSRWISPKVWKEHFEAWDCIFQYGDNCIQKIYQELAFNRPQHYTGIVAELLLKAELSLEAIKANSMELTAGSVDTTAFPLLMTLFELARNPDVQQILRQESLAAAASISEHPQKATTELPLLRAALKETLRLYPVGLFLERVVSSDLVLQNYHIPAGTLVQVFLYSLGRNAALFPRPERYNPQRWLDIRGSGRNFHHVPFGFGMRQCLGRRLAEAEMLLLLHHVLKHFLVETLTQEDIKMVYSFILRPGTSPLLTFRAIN
Description: The authors of the present invention investigated the activity of the compounds according to the invention as inhibitors of CYP11 B2 when analyzed in a reconstructed system containing 0.5 μm recombinant CYP1 1B2, 0.3 μm human adrenodoxin reductase, 2 μm human adrenodoxin, 100 μm corticosterone as a control reaction to detect the formation of a product with using an HPLC system with a UV detector. The test compound is added to the reaction mixture to a final concentration of ≤2 μM. The concentrated protein mixture was diluted with buffer to a final volume of 0.5 ml, pre-incubated for 10 min at 37° C., followed by the addition of the substrate. Reactions are initiated by adding NADPH (nicotinamide adenine dinucleotide phosphate) to a final concentration of 0.25 mM with a regenerating system (glucose-6-phosphate and glucose-6-phosphate dehydrogenase) in 25 mM potassium phosphate buffer, pH 7.4, containing 0.1 mM DTT (dithiothreitol), 0.1% Tween-20.4 mM MgCl2 and incubated at 37° C. After 30 minutes of incubation, the reaction is stopped by adding 5 ml of dichloromethane. The organic phase is isolated by centrifugation, evaporation, dissolution in ethanol and transferred to a vial for HPLC studies. A C18 Luna 100 Å 250×4, 6 mm column was used on an Agilent Technologies 1200 series instrument (USA) with ethanol as the mobile phase.
Activity (a) is calculated as the amount of product in nmol per minute per 1 nmol of CYP.
where k is the correction factor (k=1 is used as the molar extinction coefficients of steroid substrates and products similar at a detection wavelength of 254 nm), As is the peak area of the substrate, cs is the concentration of the substrate, Ap is the peak area of the product, ce is the concentration of CYP (cytochrome P450), t is the reaction time.
The level of inhibition of CYP11 B2 activity is expressed as a percentage, where 0% is defined as no inhibition in reactions without test compound and 100% is absolute inhibition by test compound.

Compound | inhibition at 2 µM [%]
CN1CCN(c2c(F)cc(S(=O)(=O)n3ccc4c(-c5ncc(F)cn5)cncc43)cc2F)CC1 [Compound 1_29, 1-((3,5-difluoro-4-(4-methylpiperazin-1-yl)phenyl)sulfonyl)-4-(5-fluoropyrimidin-2-yl)-1H-pyrrolo[2,3-c]pyridine] | 50 to 100
CN1CC2CN(c3c(F)cc(S(=O)(=O)n4ccc5c(-c6ccccn6)cncc54)cc3F)CC2C1 (centres unmarked) [Compound 1_24, 1-((3,5-difluoro-4-(5-methylhexahydropyrrolo[3,4-c]pyrrol-2(1H)-yl)phenyl)sulfonyl)-4-(pyridin-2-yl)-1H-pyrrolo [2,3-s]pyridine] | 20 to 100
CN1CCC2CN(c3c(F)cc(S(=O)(=O)n4ccc5c(-c6ccccn6)cncc54)cc3F)CC2C1 (centres unmarked) [Compound 1_25, 1-((3,5-difluoro-4-(5-methyloctahydro-2H-pyrrolo[3,4-c]pyridin-2-yl)phenyl)sulfonyl)-4-(pyridin-2-yl)-1H-pyrrolo[2,3-c]pyridine] | 50 to 100

Other lines, results leading:

inhibition at 2 µM [%] | Compound
1 to 100 | CNc1cnc(-c2cncc3c2ccn3S(=O)(=O)c2cc(F)c(N3CCN(C)CC3)c(F)c2)cn1 [Compound 1_30, 5-(1-((3,5-difluoro-4-(4-methylpiperazin-1-yl)phenyl)sulfonyl)-1H-pyrrolo[2,3-c]pyridin-4-yl)-N-methylpyrazin-2-amine]
20 to 100 | COc1c(C)cc(S(=O)(=O)n2ccc3c(-c4ccc(S(C)(=O)=O)cn4)cncc32)cc1C [Compound 1_05, 1-(4-methoxy-3,5-dimethylphenyl)sulfonyl-4-(5-methylsulfonyl-2-pyridyl)pyrrolo[2,3-c]pyridine]
50 to 100 | COc1c(C)cc(S(=O)(=O)n2ccc3c(-c4ccc(C)nn4)cncc32)cc1C [Compound 1_04, 1-(4-methoxy-3,5-dimethylphenyl)sulfonyl-4-(6-methylpyridazin-3-yl)pyrrolo[2,3-c]pyridine]
50 to 100 | CN(c1c(F)cc(S(=O)(=O)n2ccc3c(-c4ccccn4)cncc32)cc1F)C1CCC1 [Compound 1_14, N-cyclobutyl-2,6-difluoro-N-methyl-4-((4-(pyridin-2-yl)-1H-pyrrolo[2,3-c]pyridin-1-yl)sulfonyl)aniline]
50 to 100 | COc1c(C)cc(S(=O)(=O)n2ccc3c(-c4cnc(C)cn4)cncc32)cc1C [Compound 1_02, 1-((4-methoxy-3,5-dimethylphenyl)sulfonyl)-4-(5-methylpyrazin-2-yl)-1H-pyrrolo[2,3-c]pyridine]
50 to 100 | Cc1cnc(-c2cncc3c2ccn3S(=O)(=O)c2cc(F)c(N)c(F)c2)cn1 [Compound 1_32, 2,6-difluoro-4-((4-(5-methylpyrazin-2-yl)-1H-pyrrolo[2,3-c]pyridin-1-yl)sulfonyl)aniline]
50 to 100 | Nc1c(F)cc(S(=O)(=O)n2ccc3c(-c4ccccn4)cncc32)cc1F [Compound 1_11, 2,6-difluoro-4-((4-(pyridin-2-yl)-1H-pyrrolo[2,3-c]pyridin-1-yl)sulfonyl)aniline]

same assay, conditions: compounds 2_xx, 3_xx, 4_01; test compound final concentration ≤2 μM; corticosterone substrate; 30 minutes at 37° C.; read-out: Level of CYP11B2 activity inhibition

Compound | inhibition at 2 µM [%]
CNc1cnc(-c2cncc3c2ccn3S(=O)(=O)c2cc(F)c(N3CCN(C)CC3)c(F)c2)nc1 [Compound 3_08, 2-(1-((3,5-difluoro-4-(4-methylpiperazin-1-yl)phenyl)sulfonyl)-1H-pyrrolo[2,3-c]pyridin-4-yl)-N-methylpyrimidin-5-amine] | 20 to 100
NC1CCN(c2c(F)cc(S(=O)(=O)n3ccc4c(-c5ccccn5)cncc43)cc2F)CC1 [Compound 3_15, 1-(2,6-difluoro-4-((4-(pyridin-2-yl)-1H-pyrrolo[2,3-c]pyridin-1-yl)sulfonyl)phenyl)piperidin-4-amine] | 35 to 100
O=S(=O)(c1cc(F)c(N2CCCNCC2)c(F)c1)n1ccc2c(-c3ccccn3)cncc21 [Compound 3_14, 1-((4-(1,4-diazepan-1-yl)-3,5-difluorophenyl)sulfonyl)-4-(pyridin-2-yl)-1H-pyrrolo[2,3-c]pyridine] | 35 to 100
CN1CC2(C1)CN(c1c(F)cc(S(=O)(=O)n3ccc4c(-c5ccccn5)cncc43)cc1F)C2 [Compound 3_16, 1-((3,5-difluoro-4-(6-methyl-2,6-diazaspiro[3.3]heptan-2-yl)phenyl)sulfonyl)-4-(pyridin-2-yl)-1H-pyrrolo[2,3-c]pyridine] | 35 to 100
CNc1cnc(-c2cncc3c2ccn3S(=O)(=O)c2cc(F)c(N3CC4CN(C)CC4C3)c(F)c2)cn1 (centres unmarked) [Compound 3_22, 5-(1-((3,5-difluoro-4-(5-methylhexahydropyrrolo[3,4-c]pyrrol-2(1H)-yl)phenyl)sulfonyl)-1H-pyrrolo[2,3-c]pyridin-4-yl)-N-methylpyrazin-2-amine] | 35 to 100
CN1CC2CC(C1)N2c1c(F)cc(S(=O)(=O)n2ccc3c(-c4ccccn4)cncc32)cc1F [Compound 3_18, 6-(2,6-difluoro-4-((4-(pyridin-2-yl)-1H-pyrrolo[2,3-c]pyridin-1-yl)sulfonyl)phenyl)-3-methyl-3,6-diazabicyclo[3.1.1]heptane] | 35 to 100
CN1CCCN(c2c(F)cc(S(=O)(=O)n3ccc4c(-c5ccccn5)cncc43)cc2F)CC1 [Compound 3_13, 1-((3,5-difluoro-4-(4-methyl-1,4-diazepan-1-yl)phenyl)sulfonyl)-4-(pyridin-2-yl)-1H-pyrrolo[2,3-c]pyridine] | 35 to 100
CN1CC2CN(c3c(F)cc(S(=O)(=O)n4ccc5c(-c6ccc(C(=O)NC(C)(C)C)nc6)cncc54)cc3F)CC2C1 (centres unmarked) [Compound 2_03, N-(tert-butyl)-5-(1-((3,5-difluoro-4-(5-methylhexahydropyrrolo[3,4-c]pyrrol-2(1H)-yl)phenyl)sulfonyl)-1H-pyrrolo[2,3-c]pyridin-4-yl)picolinamide] | 35 to 100
CN1CC2CCC(C1)N2c1c(F)cc(S(=O)(=O)n2ccc3c(-c4ccccn4)cncc32)cc1F [Compound 3_19, 1-((3,5-difluoro-4-(3-methyl-3,8-diazabicyclo[3.2.1]octan-8-yl)phenyl)sulfonyl)-4-(pyridin-2-yl)-1H-pyrrolo[2,3-c]pyridine] | 35 to 100

Next, values leading:

inhibition at 2 µM [%] | Compound
20 to 100 | CNc1ccc(-c2cncc3c2ccn3S(=O)(=O)c2cc(F)c(N3CCN(C)CC3)c(F)c2)cn1 [Compound 3_03, 5-(1-((3,5-difluoro-4-(4-methylpiperazin-1-yl)phenyl)sulfonyl)-1H-pyrrolo[2,3-c]pyridin-4-yl)-N-methylpyridin-2-amine]
35 to 100 | CN1CCN(c2c(F)cc(S(=O)(=O)n3ccc4c(-c5ccc(C#N)cn5)cncc43)cc2F)CC1 [Compound 3_06, 6-(1-((3,5-difluoro-4-(4-methylpiperazin-1-yl)phenyl)sulfonyl)-1H-pyrrolo[2,3-c]pyridin-4-yl)nicotinonitrile]
35 to 100 | CC(C)N1CCN(c2c(F)cc(S(=O)(=O)n3ccc4c(-c5ccccn5)cncc43)cc2F)CC1 [Compound 3_11, 1-((3,5-difluoro-4-(4-isopropylpiperazin-1-yl)phenyl)sulfonyl)-4-(pyridin-2-yl)-1H-pyrrolo[2,3-c]pyridine]
35 to 100 | CN1CCN(c2c(F)cc(S(=O)(=O)n3ccc4c(-c5ccccn5)cncc43)cc2F)CC1=O [Compound 2_01, 4-(2,6-difluoro-4-((4-(pyridin-2-yl)-1H-pyrrolo[2,3-c]pyridin-1-yl)sulfonyl)phenyl)-1-methylpiperazin-2-one]
